Literature values in patent US20060052382A1, “3-Amino-4-phenylbutanoic acid derivatives as dipeptidyl peptidase inhibitors for the treatment or prevention of diabetes” (priority 2002, published 2006).
Each block holds one compound with its values, some of them ahead of it.

Legend:
hematopoiesis = conditions: mouse, cyclophosphamide-induced neutropenia; WO 99/56753
cardiac allograft = conditions: rats; Transplantation, 63: 1495-1500 (1997)
DP-IV = molecular target: T1, DP-IV (Homo sapiens, UniProt P27487); conditions: plasma
T1 construct: GRF is rapidly degraded in plasma to GRF[3-44]
T1 sequence (P27487 39-766 limits assumed): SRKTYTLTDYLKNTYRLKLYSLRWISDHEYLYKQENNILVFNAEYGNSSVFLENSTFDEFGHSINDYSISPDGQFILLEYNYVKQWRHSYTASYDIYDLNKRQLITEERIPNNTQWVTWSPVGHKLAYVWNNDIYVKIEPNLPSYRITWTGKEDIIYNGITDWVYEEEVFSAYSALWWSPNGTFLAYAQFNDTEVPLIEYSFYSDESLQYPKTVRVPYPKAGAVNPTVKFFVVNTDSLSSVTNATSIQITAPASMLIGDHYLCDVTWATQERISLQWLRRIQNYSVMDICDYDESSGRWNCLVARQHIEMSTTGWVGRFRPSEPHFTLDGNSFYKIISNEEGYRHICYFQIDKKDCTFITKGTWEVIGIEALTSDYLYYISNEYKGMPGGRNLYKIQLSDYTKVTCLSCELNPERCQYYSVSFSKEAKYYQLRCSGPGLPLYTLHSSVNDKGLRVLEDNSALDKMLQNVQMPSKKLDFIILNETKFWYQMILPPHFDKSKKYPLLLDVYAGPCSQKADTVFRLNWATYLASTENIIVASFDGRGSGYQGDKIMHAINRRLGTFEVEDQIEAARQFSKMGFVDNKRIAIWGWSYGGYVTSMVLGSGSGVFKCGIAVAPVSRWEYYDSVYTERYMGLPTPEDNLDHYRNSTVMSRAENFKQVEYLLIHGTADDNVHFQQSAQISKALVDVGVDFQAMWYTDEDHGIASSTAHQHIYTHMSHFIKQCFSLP

Compound: CC(C)[C@H](N)C(=O)N1CCC[C@H]1B(O)O [Val-Boro-Pro]
stimulation of hematopoiesis (hematopoiesis): stimulated hematopoiesis

Compound: CC(C)N1CCC(c2ccccc2)(c2ccccc2)CC1 [Prodipine, Pro-Pro-diphenyl-phosphonate]
cardiac allograft survival (cardiac allograft): double cardiac allograft survival in rats from day 7 to day 14

prevention of GRF degradation to GRF[3-44] (DP-IV): prevented
Compound: diprotin A
